Consider twelve molecules from ChEMBL document CHEMBL4613311, “Synthesis of Novel G Factor or Chloroquine-Artemisinin Hybrids and Conjugates with Potent Antiplasmodial Activity” (ACS Med Chem Lett, 2020).

In data set [1] the test system is Plasmodium falciparum. Kind of data set: Antiplasmodial activity against chloroquine resistant Plasmodium falciparum FcB1/Columbia infected in human erythrocytes preincubated for 24 hrs followed by [3H]-hypoxanthine addition and measured after 24 hrs by liquid scintillation analysis. The data set is classed as functional, organism-based.
The nature of data set [2]: Selectivity index, ratio of IC50 for human AB943 cells to IC50 for antiplasmodial activity against chloroquine resistant Plasmodium falciparum FcB1/Colombia infected in human erythrocytes. The data set is classed as toxicity, cell-based. Particulars: read-out: Ratio IC50.
Data set [3] deals with Plasmodium falciparum. Kind of data set: Antiplasmodial activity against chloroquine resistant Plasmodium falciparum FcB1/Columbia infected in human erythrocytes at 10 nM preincubated for 24 hrs followed by [3H]-hypoxanthine addition and measured after 24 hrs by liquid scintillation analysis relative to control. The data set is classed as functional.

Molecule `COC12OOC3(C=C1C(=O)C(C)(C)C(=O)C2(C)C)CCNCC3` (stereo not drawn) came in with an IC50 in the data set on Plasmodium falciparum [1] greater than 250 nM.
Take `COC12OOC3(C=C1C(=O)C(C)(C)C(=O)C2(C)C)CCN(C(=O)CCC(=O)N(CCCCNC(=O)CC[C@H]1O[C@@H]2O[C@@]4(C)CC[C@H]5[C@H](C)CC[C@@H]([C@H]1C)[C@@]25OO4)CCCCNC(=O)CC[C@H]1O[C@@H]2O[C@@]4(C)CC[C@H]5[C@H](C)CC[C@@H]([C@H]1C)[C@@]25OO4)CC3` (stereo partly drawn): the IC50 in the data set on Plasmodium falciparum [1] amounted to 10.6 nM. Besides, the selectivity ratio in data set [2] worked out at 983.
The like results for `C[C@@H]1CC[C@H]2[C@@H](C)C(=O)O[C@@H]3O[C@@]4(C)CC[C@@H]1[C@]32OO4` [ARTEMISININ] were, in that order, 55 nM and greater than 4540.
In the data set with Plasmodium falciparum [1], `COC12OOC3(C=C1C(=O)C(C)(C)C(=O)C2(C)C)CCN(C(=O)CCC(=O)NCCCCN(CCCNC(=O)CCC(=O)N1CCC2(C=C4C(=O)C(C)(C)C(=O)C(C)(C)C4(OC)OO2)CC1)C(=O)CCC(=O)NCCNc1ccnc2cc(Cl)ccc12)CC3` (stereo not drawn) displayed an IC50 greater than 167 nM.
In the case of `C[C@H]1[C@@H](CCC(=O)NCCCCN(CCCNC(=O)CC[C@H]2O[C@@H]3O[C@@]4(C)CC[C@H]5[C@H](C)CC[C@@H]([C@H]2C)[C@@]35OO4)C(=O)CCC(=O)NCCNc2ccnc3cc(Cl)ccc23)O[C@@H]2O[C@@]3(C)CC[C@H]4[C@H](C)CC[C@@H]1[C@@]24OO3`, the inhibition at 0.01 µM in the data set on Plasmodium falciparum [3] was 33%.
Turning to `COC12OOC3(C=C1C(=O)C(C)(C)C(=O)C2(C)C)CCN(C(=O)CCC(=O)NCCCCN(CCCCNC(=O)CCC(=O)N1CCC2(C=C4C(=O)C(C)(C)C(=O)C(C)(C)C4(OC)OO2)CC1)C(=O)CCC(=O)NCCNc1ccnc2cc(Cl)ccc12)CC3` (stereo not drawn), in the data set with Plasmodium falciparum [1], the IC50 was greater than 167 nM.
Take `C[C@H]1[C@@H](CCC(=O)NCCCCN(CCCCNC(=O)CC[C@H]2O[C@@H]3O[C@@]4(C)CC[C@H]5[C@H](C)CC[C@@H]([C@H]2C)[C@@]35OO4)C(=O)CCC(=O)NCCNc2ccnc3cc(Cl)ccc23)O[C@@H]2O[C@@]3(C)CC[C@H]4[C@H](C)CC[C@@H]1[C@@]24OO3`: in the data set on Plasmodium falciparum [1], the IC50 was 52.3 nM. In addition, the selectivity ratio in data set [2] came out at 328.
`C[C@H]1[C@@H](CCC(=O)NCCNc2ccnc3cc(Cl)ccc23)O[C@@H]2O[C@@]3(C)CC[C@H]4[C@H](C)CC[C@@H]1[C@@]24OO3` showed an inhibition at 0.01 µM with Plasmodium falciparum [3] of 11%.
For the molecule `COC12OOC3(C=C1C(=O)C(C)(C)C(=O)C2(C)C)CCN(C(=O)CCC(=O)N(CCCCNC(=O)CC[C@H]1O[C@@H]2O[C@@]4(C)CC[C@H]5[C@H](C)CC[C@@H]([C@H]1C)[C@@]25OO4)CCCNC(=O)CC[C@H]1O[C@@H]2O[C@@]4(C)CC[C@H]5[C@H](C)CC[C@@H]([C@H]1C)[C@@]25OO4)CC3` (stereo partly drawn), the IC50 in the data set on Plasmodium falciparum [1] is 8.4 nM. Also, in data set [2], the selectivity ratio is 2110.
The like results for `COC12OOC3(C=C1C(=O)C(C)(C)C(=O)C2(C)C)CCN(C(=O)CCC(=O)NCC[C@H]1O[C@@H]2O[C@@]4(C)CC[C@H]5[C@H](C)CC[C@@H]([C@H]1C)[C@@]25OO4)CC3` (stereo partly drawn) were, in that order, 124 nM and 144.
Turning to `C[C@H]1[C@@H](CCC(=O)N2CCN(c3ccnc4cc(Cl)ccc34)CC2)O[C@@H]2O[C@@]3(C)CC[C@H]4[C@H](C)CC[C@@H]1[C@@]24OO3`, the inhibition at 0.01 µM in the data set on Plasmodium falciparum [3] came out at 11%.
With `COC12OOC3(C=C1C(=O)C(C)(C)C(=O)C2(C)C)CCN(C(=O)CC[C@H]1O[C@@H]2O[C@@]4(C)CC[C@H]5[C@H](C)CC[C@@H]([C@H]1C)[C@@]25OO4)CC3` (stereo partly drawn), the IC50 with Plasmodium falciparum [1] is 2.6 nM. For the same molecule, the selectivity ratio in data set [2] was 16400.
